# From patent US20240254087A1, “SELECTIVE, PARTIAL, AND ARRESTIN-BIASED 5-HT2A AGONISTS WITH UTILITY IN VARIOUS DISORDERS” (Saint Joseph's University, priority 2021, published 2024)
# Legend:
# [1] = test system: 5-HT2A; assay: Ca2+ flux assay, 5-HT2A; assay type: cell-based, human; conditions: Gq/11 Ca2+ mobilization; higher number = skewed towards 5-HT2A
# [2] = target: T1, 5-HT2B (Homo sapiens, UniProt P41595); assay: Ca2+ flux assay, 5-HT2B; assay type: cell-based; set-up: expressed in transfected cells; conditions: for Emax: read-out: 5-HT2B Emax % 5-HT; for Emax / 5-HT2B EC50, nM: Ca2+ flux
# [3] = target: T2, 5-HT2A (Homo sapiens, UniProt P28223); assay: Ca2+ flux assay, 5-HT2A; assay type: cell-based; set-up: expressed in transfected cells; conditions: for Emax: read-out: 5-HT2A Emax % 5-HT, Ca2+ flux
# [4] = target: T3, 5-HT2C (Homo sapiens, UniProt P28335); assay: Competitive radioligand binding (NIMH PDSP); set-up: expressed in transfected cells
# T3 sequence (P28335 33-458): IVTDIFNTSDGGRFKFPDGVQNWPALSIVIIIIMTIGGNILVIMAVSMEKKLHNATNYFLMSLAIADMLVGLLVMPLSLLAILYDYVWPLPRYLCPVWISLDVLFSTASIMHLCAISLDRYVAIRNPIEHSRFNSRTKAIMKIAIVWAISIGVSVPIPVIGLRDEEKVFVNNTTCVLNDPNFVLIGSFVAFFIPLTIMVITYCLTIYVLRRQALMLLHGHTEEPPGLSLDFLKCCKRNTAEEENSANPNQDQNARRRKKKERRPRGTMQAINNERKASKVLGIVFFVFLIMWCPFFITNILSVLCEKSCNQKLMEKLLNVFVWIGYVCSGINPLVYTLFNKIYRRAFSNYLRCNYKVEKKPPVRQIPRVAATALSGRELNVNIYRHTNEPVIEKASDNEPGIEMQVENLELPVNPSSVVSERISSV
# Method: (§1) Method 1: Competitive binding experiments were performed by the National Institute of Mental Health Psychoactive Drug Screening Program (NIMH PDSP) using described methods or 5-HT2A experiments performed using [3H]-ketanserin displacement in human 5-HT2A expressing membranes. Target compounds were dissolved in DMSO and an initial screen performed to assess displacement of the radioligand from target receptors at a concentration of 10,000 nM. […] For the Ki experiments, compounds were always tested in triplicate on separate plates. Each plate also contained a known ligand for the receptor as a positive control.
# [5] = target: T1, 5-HT2B; assay: Competitive radioligand binding (NIMH PDSP); set-up: expressed in transfected cells
# Method: as §1
# [6] = target: T3, 5-HT2C; assay: Ca2+ flux assay, 5-HT2C; assay type: cell-based; set-up: expressed in transfected cells; conditions: for EC50: 5-HT2C EC50, nM; for Emax: read-out: 5-HT2C Emax % 5-HT
# [7] = target: 5-HT1B (Homo sapiens, UniProt P28222); assay: Competitive radioligand binding (NIMH PDSP)
# Method: as §1
# [8] = target: 5-HT1e (Homo sapiens, UniProt P28566); assay: Competitive radioligand binding (NIMH PDSP)
# Method: as §1
# [9] = target: T4, 5-HT1A (Homo sapiens, UniProt P08908); assay: Competitive radioligand binding (NIMH PDSP)
# T4 sequence (P08908 1-422): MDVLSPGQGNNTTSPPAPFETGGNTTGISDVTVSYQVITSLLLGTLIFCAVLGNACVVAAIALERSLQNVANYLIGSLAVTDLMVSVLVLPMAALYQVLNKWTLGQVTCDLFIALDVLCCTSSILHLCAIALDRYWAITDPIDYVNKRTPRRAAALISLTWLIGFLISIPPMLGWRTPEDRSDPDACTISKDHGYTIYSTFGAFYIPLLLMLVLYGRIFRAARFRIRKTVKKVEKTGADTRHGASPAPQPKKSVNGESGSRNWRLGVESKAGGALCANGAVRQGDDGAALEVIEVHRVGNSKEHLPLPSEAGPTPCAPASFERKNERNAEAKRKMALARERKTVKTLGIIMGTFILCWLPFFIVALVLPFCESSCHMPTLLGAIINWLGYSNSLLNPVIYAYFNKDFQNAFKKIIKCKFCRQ
# Method: as §1
# [10] = target: 5-HT1D (Homo sapiens, UniProt P28221); assay: Competitive radioligand binding (NIMH PDSP)
# Method: as §1
# [11] = target: T2, 5-HT2A; assay: Competitive radioligand binding (NIMH PDSP)
# Method: as §1
# [12] = target: T5, 5-HT3 (Homo sapiens, UniProt P46098); assay: Competitive radioligand binding (NIMH PDSP)
# T5 sequence (P46098 24-478): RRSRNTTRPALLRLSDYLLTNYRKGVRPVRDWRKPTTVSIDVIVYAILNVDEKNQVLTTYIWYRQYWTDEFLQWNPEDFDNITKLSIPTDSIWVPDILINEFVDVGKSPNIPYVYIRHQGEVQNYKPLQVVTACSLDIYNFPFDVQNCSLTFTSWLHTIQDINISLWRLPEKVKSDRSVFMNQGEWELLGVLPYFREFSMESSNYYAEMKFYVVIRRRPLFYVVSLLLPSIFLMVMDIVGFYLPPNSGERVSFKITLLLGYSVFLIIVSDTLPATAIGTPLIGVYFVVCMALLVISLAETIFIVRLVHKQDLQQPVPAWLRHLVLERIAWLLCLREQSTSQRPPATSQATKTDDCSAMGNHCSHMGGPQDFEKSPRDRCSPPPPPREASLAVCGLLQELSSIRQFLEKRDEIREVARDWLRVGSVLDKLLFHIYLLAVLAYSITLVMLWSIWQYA
# Method: as §1
# T2 sequence (P28223 whole entry): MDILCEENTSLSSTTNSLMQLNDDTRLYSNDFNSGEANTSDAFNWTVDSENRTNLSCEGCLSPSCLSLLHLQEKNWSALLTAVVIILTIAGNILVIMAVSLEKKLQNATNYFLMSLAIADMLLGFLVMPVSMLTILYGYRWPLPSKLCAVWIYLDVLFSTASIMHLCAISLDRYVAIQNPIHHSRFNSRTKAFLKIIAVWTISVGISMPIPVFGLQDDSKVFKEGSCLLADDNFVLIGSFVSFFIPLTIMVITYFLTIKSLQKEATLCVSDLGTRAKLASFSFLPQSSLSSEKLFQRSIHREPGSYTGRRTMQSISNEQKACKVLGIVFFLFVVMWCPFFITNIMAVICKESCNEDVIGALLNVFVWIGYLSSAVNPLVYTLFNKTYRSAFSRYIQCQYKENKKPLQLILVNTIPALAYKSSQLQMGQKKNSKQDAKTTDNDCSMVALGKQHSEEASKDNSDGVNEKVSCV
# T1 sequence (P41595 whole entry): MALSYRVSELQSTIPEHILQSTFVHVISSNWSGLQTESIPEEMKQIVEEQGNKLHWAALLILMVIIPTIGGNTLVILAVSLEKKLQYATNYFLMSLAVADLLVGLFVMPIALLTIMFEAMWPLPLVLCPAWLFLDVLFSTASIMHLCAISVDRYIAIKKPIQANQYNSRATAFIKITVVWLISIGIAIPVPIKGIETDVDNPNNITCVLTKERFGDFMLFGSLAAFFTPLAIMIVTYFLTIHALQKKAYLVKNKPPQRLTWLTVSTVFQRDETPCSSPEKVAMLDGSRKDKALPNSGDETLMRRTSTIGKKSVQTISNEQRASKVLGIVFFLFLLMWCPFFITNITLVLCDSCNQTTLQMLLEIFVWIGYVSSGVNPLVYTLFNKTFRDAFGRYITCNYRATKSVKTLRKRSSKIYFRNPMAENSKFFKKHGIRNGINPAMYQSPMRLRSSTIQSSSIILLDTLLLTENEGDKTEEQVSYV
# Sequence of 5-HT1D (P28221 whole entry, species assumed): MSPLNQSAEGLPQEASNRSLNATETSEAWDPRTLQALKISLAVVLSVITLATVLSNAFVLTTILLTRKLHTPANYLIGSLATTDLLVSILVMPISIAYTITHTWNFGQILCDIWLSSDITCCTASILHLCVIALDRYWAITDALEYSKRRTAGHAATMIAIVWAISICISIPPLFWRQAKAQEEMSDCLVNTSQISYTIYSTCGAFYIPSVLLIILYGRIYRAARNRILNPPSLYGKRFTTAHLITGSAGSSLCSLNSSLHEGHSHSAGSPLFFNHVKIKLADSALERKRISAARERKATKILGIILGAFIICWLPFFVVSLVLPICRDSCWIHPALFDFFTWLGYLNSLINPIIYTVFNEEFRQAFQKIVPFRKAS
# Sequence of 5-HT1B (P28222 whole entry, species assumed): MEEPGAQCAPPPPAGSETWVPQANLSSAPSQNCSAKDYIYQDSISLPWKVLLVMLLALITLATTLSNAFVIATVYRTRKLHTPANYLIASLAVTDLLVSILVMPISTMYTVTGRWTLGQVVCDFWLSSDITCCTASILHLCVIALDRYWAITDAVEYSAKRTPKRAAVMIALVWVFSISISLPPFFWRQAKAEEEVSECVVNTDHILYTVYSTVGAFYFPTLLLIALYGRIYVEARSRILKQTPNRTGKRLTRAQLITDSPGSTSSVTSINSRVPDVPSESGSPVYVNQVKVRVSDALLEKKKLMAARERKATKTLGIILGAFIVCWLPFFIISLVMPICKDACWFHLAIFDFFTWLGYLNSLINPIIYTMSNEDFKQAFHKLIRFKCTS
# Sequence of 5-HT1e (P28566 whole entry, species assumed): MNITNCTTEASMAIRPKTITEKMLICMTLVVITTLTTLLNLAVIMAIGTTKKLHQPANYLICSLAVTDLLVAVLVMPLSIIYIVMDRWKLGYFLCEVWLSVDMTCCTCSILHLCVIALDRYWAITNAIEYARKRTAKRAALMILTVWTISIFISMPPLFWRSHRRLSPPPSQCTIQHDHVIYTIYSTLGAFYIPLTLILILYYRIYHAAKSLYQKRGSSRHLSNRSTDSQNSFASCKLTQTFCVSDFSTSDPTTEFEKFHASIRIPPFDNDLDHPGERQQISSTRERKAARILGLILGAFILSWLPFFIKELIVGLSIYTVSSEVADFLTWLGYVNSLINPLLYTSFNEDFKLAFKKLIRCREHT
Compound,5-HT2A/5-HT2c Selectivity Factor ΔLog(Emax/EC50) [1],EC50 [2] [µM],Emax [2] [%],"EC50 ([3]; 5-HT2A (pEC50 ± SEM), Ca2+ flux) [nM]","EC50 ([3]; 5-HT2A EC50, nM, Ca2+ flux) [nM]",Emax [3] [%],Ki [4] [µM],Ki [5] [µM],EC50 [6] [nM],Emax [6] [%],Ki [7] [µM],Ki [8] [µM],Ki [9] [µM],Ki [10] [µM],Ki [11] [µM],Ki [12] [µM],"5-HT2B EC50, nM [2]","5-HT2A EC50, nM ([3]; Ca2+ flux)","5-HT2C EC50, nM [6]",5-HT2A Emax % 5-HT ([3]; Ca2+ flux) [% 5-HT]
"COc1cc([N+](=O)[O-])c(OC)cc1CCN [2C-N (1), 2-(2,5-dimethoxy-4-nitrophenyl)ethan-1-amine, reference compound]",19.1,0.0503,72 ± 3,4.9,4.56,100 ± 1,0.162,0.123,60.1,69 ± 2,> 10,0.676,1.45,0.832,0.0724,> 10,,,,
"COc1cc([N+](=O)[O-])c(OC)cc1CCNCc1cccc2ccccc12 [25N-N-1-Nap (16), [2-(2,5-dimethoxy-4-nitrophenyl)ethyl][(naphthalen-1-yl)methyl]amine]",5-HT2A Selective,,< 10,,,< 10,0.00427,0.00117,,< 10,> 10,> 10,0.24,0.871,0.00115,> 10,No activity,No activity,No activity,
"COc1cc([N+](=O)[O-])c(OC)cc1CCNCc1ccccc1 [25N-NB (2), Benzyl[2-(2,5-dimethoxy-4-nitrophenyl)ethyl]amine]",23.6,,< 10,,1.27,86 ± 1,,,26.2,75 ± 1,,,,,,,No activity,,,
"COc1cc([N+](=O)[O-])c(OC)cc1CCNCc1cccc(F)c1OC [25N-NB-2-MeO-3-F (19), [2-(2,5-dimethoxy-4-nitrophenyl)ethyl][(3-fluoro-2-methoxyphenyl)methyl]amine]",33.8,,< 10,,2.35,83 ± 1,0.0407,0.0251,74.5,77 ± 2,> 10,> 10,1,> 10,0.00741,> 10,No activity,,,
"COc1cc([N+](=O)[O-])c(OC)cc1CCNCc1cccc(C)c1O [25N-NB-2-OH-3-Me (18), 2-({[2-(2,5-dimethoxy-4-nitrophenyl)ethyl]amino}methyl)-6-methylphenol]",5-HT2A Selective,,< 10,,1.58,55 ± 2,0.00288,0.000776,,< 10,> 10,> 10,0.186,1.29,0.000479,> 10,No activity,,No activity,
"COc1cc([N+](=O)[O-])c(OC)cc1CCNCc1cccc(C)c1 [25N-NB-3-Me (22), [2-(2,5-dimethoxy-4-nitrophenyl)ethyl][(3-methylphenyl)methyl]amine]",29.1,,< 10,,2.27,54 ± 1,0.0398,0.00288,14.3,15 ± 2,> 10,> 10,1.78,0.933,0.000209,> 10,No activity,,,
"COc1cc([N+](=O)[O-])c(OC)cc1CCNCc1cccc(O)c1 [25N-NB-3-OH (21), 3-({[2-(2,5-dimethoxy-4-nitrophenyl)ethyl]amino}methyl)phenol]",92.6,,< 10,,3.32,55 ± 2,0.0832,0.0355,49.1,53 ± 4,> 10,> 10,1.86,> 10,0.0145,> 10,No activity,,,
"COc1cc([N+](=O)[O-])c(OC)cc1CCNCc1ccccc1C(F)(F)F [25N-NBCF3 (14), [2-(2,5-dimethoxy-4-nitrophenyl)ethyl]({[2-(trifluoromethyl)phenyl]methyl}) amine]",85.5,,< 10,,12.3,≤ 77,0.102,0.0589,271,20 ± 2,> 10,> 10,1.07,> 10,0.02,> 10,No activity,,,77 ± 1
